In US10226045B2, “Azoline compounds” (priority 2014, dated 2019):
Read-outs that look alike come from different tables or passages of the source.

Experiments:
Format in all cases: in vivo
[1] = system: Vetch Aphid (Megoura viciae); experiment: Vetch aphid, broad bean leaf disk test; conditions: foliar, 120 h
Method: B.3 Vetch Aphid (Megoura viciae)
For evaluating control of vetch aphid (Megoura viciae) through contact or systemic means the test unit consisted of 24-well-microtiter plates containing broad bean leaf disks.
The compounds were formulated using a solution containing 75% v/v water and 25% v/v DMSO. Different concentrations of formulated compounds were sprayed onto the leaf disks at 2.5 μl, using a custom built micro atomizer, at two replications.
After application, the leaf disks were air-dried and 5-8 adult aphids placed on the leaf disks inside the microtiter plate wells. The aphids were then allowed to suck on the treated leaf disks and incubated at about 23±1° C. and about 50±5% relative humidity for 5 days. Aphid mortality and fecundity was then visually assessed.

[2] = system: Tobacco Budworm (Heliothis virescens); experiment: Tobacco budworm, insect diet microtiter plate test; conditions: 120 h
Method: B.4 Tobacco Budworm (Heliothis virescens)
For evaluating control of tobacco budworm (HeliothiS virescens) the test unit consisted of 96-well-microtiter plates containing an insect diet and 15-25 H. virescens eggs.
(§1) The compounds were formulated using a solution containing 75% v/v water and 25% v/v DMSO. Different concentrations of formulated compounds were sprayed onto the insect diet at 10 μl, using a custom built micro atomizer, at two replications.
(§2) After application, microtiter plates were incubated at about 28±1° C. and about 80±5% relative humidity for 5 days. Egg and larval mortality was then visually assessed.

[3] = system: Mediterranean Fruitfly (Ceratitis capitata); experiment: Mediterranean fruitfly, insect diet microtiter plate test; conditions: 120 h
Method: B.6 Mediterranean Fruitfly (Ceratitis capitata)
as §1, with “For evaluating control of Mediterranean fruitfly (CeratitiS capitata) the test unit consisted of microtiter plates containing an insect diet and 50-80 C. capitata eggs. The” for “The”, “5” for “10”
as §2

[4] = system: Diamond Back Moth (Plutella xylostella); experiment: Diamond back moth, cabbage leaf dip test; conditions: foliar
Method: B.1 Diamond Back Moth (Plutella xylostella)
The active compound was dissolved at the desired concentration in a mixture of 1:1 (vol:vol) distilled water:aceteone. Surfactant (Kinetic HV) was added at a rate of 0.01% (vol/vol). The test solution was prepared at the day of use.
Leaves of cabbage were dipped in test solution and air-dried. Treated leaves were placed in petri dishes lined with moist filter paper and inoculated with ten 3rd instar larvae. Mortality was recorded 72 hours after treatment.

[5] = system: Boll Weevil (Anthonomus grandis); experiment: Boll weevil, insect diet microtiter plate test; conditions: 120 h
Method: B.5 Boll Weevil (Anthonomus grandis)
For evaluating control of boll weevil (Anthonomus grandis) the test unit consisted of 96-well-microtiter plates containing an insect diet and 5-10 A. grandis eggs.
The compounds were formulated using a solution containing 75% v/v water and 25% v/v DMSO. Different concentrations of formulated compounds were sprayed onto the insect diet at 5 μl, using a custom built micro atomizer, at two replications.
After application, microtiter plates were incubated at about 25±1° C. and about 75±5% relative humidity for 5 days. Egg and larval mortality was then visually assessed.

[6] = system: Orchid Thrips (dichromothrips corbetti); experiment: Orchid thrips, floral-immersion technique
Method: B.7 Orchid Thrips (dichromothrips corbetti)
Dichromothrips corbetti adults used for bioassay were obtained from a colony maintained continuously under laboratory conditions. For testing purposes, the test compound is diluted in a 1:1 mixture of acetone:water (vol:vol), plus Kinetic HV at a rate of 0.01% v/v.
Thrips potency of each compound was evaluated by using a floral-immersion technique. All petals of individual, intact orchid flowers were dipped into treatment solution and allowed to dry in Petri dishes. Treated petals were placed into individual re-sealable plastic along with about 20 adult thrips. All test arenas were held under continuous light and a temperature of about 28° C. for duration of the assay. After 3 days, the numbers of live thrips were counted on each petal. The percent mortality was recorded 72 hours after treatment.

[7] = system: Green Peach Aphid (Myzus persicae); experiment: Green peach aphid, systemic test on artificial diet in microtiter plates; conditions: 72 h
From the text: B.2 Green Peach Aphid (Myzus persicae)
For evaluating control of green peach aphid (Myzus persicae) through systemic means the test unit consisted of 96-well-microtiter plates containing liquid artificial diet under an artificial mem brane.
The compounds were formulated using a solution containing 75% v/v water and 25% v/v DMSO. Different concentrations of formulated compounds were pipetted into the aphid diet, using a custom built pipetter, at two replications.
After application, 5-8 adult aphids were placed on the artificial membrane inside the microtiter plate wells. The aphids were then allowed to suck on the treated aphid diet and incubated at about 23±1° C. and about 50±5% relative humidity for 3 days. Aphid mortality and fecundity was then visually assessed.

[8] = system: Brown Marmorated Stink Bug (Halyomorpha halys); experiment: Brown marmorated stink bug, sprayed peanuts and soybean seeds in cups; conditions: 120 h
Method: B.13 Brown Marmorated Stink Bug (Halyomorpha halys)
(§3) The active compound was dissolved at the desired concentration in a mixture of 1:1 (vol:vol) distilled water: acetone. Surfactant (Kinetic HV) was added at a rate of 0.01% (vol/vol). The test solution was prepared at the day of use.
Row peanuts and soybean seeds were placed into microwavable plastic cups and inoculated with five adult stage H. halys. Using a hand atomizer, approximately 1 ml solution is sprayed into each cup, insects and food present. A water source was provided (cotton wick with water). Each treatment is replicated 4-fold. Assay arenas are kept at about 25° C. Percent mortality was recorded after 5 days.

[9] = system: Rice Green Leafhopper (Nephotettix virescens); experiment: Rice green leafhopper, sprayed rice seedlings; conditions: 72 h
Method: B.8 Rice Green Leafhopper (Nephotettix virescens)
Rice seedlings were cleaned and washed 24 hours before spraying. The active compounds were formulated in 1:1 acetone:water (vol:vol), and 0.01% vol/vol surfactant (Kinetic HV) was added. Potted rice seedlings were sprayed with 5-6 ml test solution, air dried, covered with Mylar cages cages and inoculated with 10 adults. Treated rice plants were kept at about 28-29° C. and relative humidity of about 50-60%. Percent mortality was recorded after 72 hours.

[10] = system: Green Soldier Stink Bug (Nezara viridula); experiment: Green soldier stink bug, sprayed soybean pods in Petri dishes; conditions: 120 h
Method: B.11 Green Soldier Stink Bug (Nezara viridula)
The active compound was dissolved at the desired concentration in a mixture of 1:1 (vol:vol) distilled water:acetone. Surfactant (Kinetic HV) was added at a rate of 0.01% (vol/vol). The test solution was prepared at the day of use.
Soybean pods were placed in glass Petri dishes lined with moist filter paper and inoculated with ten late 3rd instar N. viridula. Using a hand atomizer, approximately 2 ml solution is sprayed into each Petri dish. Assay arenas were kept at about 25° C. Percent mortality was recorded after 5 days.

[11] = system: Red Spider Mite (Tetranychus kanzawai); experiment: Red spider mite, sprayed cowpea beans; conditions: 72 h
Method: B.9 Red Spider Mite (Tetranychus kanzawai)
The active compound was dissolved at the desired concentration in a mixture of 1:1 (vol:vol) distilled water:acetone. Add surfactant (Kinetic HV) was added at a rate of 0.01% (vol/vol). The test solution was prepared at the day of use.
Potted cowpea beans of 4-5 days of age were cleaned with tap water and sprayed with 1-2 ml of the test solution using air driven hand atomizer. The treated plants were allowed to air dry and afterwards inoculated with 30 or more mites by clipping a cassava leaf section from rearing population. Treated plants were placed inside a holding room at about 25-27° C. and about 50-60% relative humidity. Percent mortality was assessed 72 hours after treatment.

[12] = system: Neotropical Brown Stink Bug (Euschistus heros); experiment: Neotropical brown stink bug, sprayed soybean pods in cups; conditions: 120 h
Method: B.12 Neotropical Brown Stink Bug (Euschistus heros)
as §3
Soybean pods were placed in microwavable plastic cups and inoculated with ten adult stage E. heros. Using a hand atomizer, approximately 1 ml solution is sprayed into each cup, insects and food present. A water source was provided (cotton wick with water). Each treatment was replicated 2-fold. Assay arenas were kept at about 25° C. Percent mortality was recorded after 5 days.

[13] = system: Southern Armyworm (Spodoptera eridania); experiment: Southern armyworm, sprayed lima bean plants; conditions: 96 h
Method: B.10 Southern Armyworm (Spodoptera eridania)
The active compounds were formulated in cyclohexanone as a 10,000 ppm solution supplied in tubes. The tubes were inserted into an automated electrostatic sprayer equipped with an atomizing nozzle and they served as stock solutions for which lower dilutions were made in 50% acetone:50% water (v/v). A nonionic surfactant (Kinetic®) was included in the solution at a volume of 0.01% (v/v).
Lima bean plants (variety Sieva) were grown 2 plants to a pot and selected for treatment at the 1st true leaf stage. Test solutions were sprayed onto the foliage by an automated electrostatic plant sprayer equipped with an atomizing spray nozzle. The plants were dried in the sprayer fume hood and then removed from the sprayer. Each pot was placed into perforated plastic bags with a zip closure. About 10 to 11 armyworm larvae were placed into the bag and the bags zipped closed. Test plants were maintained in a growth room at about 25° C. and about 20-40% relative humidity for 4 days, avoiding direct exposure to fluorescent light (24 hour photoperiod) to prevent trapping of heat inside the bags. Mortality and reduced feeding were assessed 4 days after treatment, compared to untreated control plants.

[14] = 2500 ppm, adult aphids on treated artificial diet, 3 days, in comparison with untreated controls, read-out: mortality
[15] = 2500 ppm, eggs on sprayed insect diet, egg and larval mortality after 5 days, in comparison with untreated controls, read-out: mortality

COC(=O)c1ccc(C2=NOC(c3cc(Cl)c(F)c(Cl)c3)(C(F)(F)F)C2)c2c1CCC2 (centres unmarked) [Compound 1-1, Methyl 7-[5-(3,5-dichloro-4-fluoro-phenyl)-5-(trifluoromethyl)-4H-isoxazol-3-yl]indane-4-carboxylate]
≥ 75%: mortality at 2500 ppm [1] | mortality at 2500 ppm [2] | mortality at 2500 ppm [3] | mortality at 300 ppm ([4]; 72 h) | mortality at 2500 ppm [5] | mortality at 300 ppm ([6]; Thrips, 72 h)

O=C(O)c1ccc(C2=NOC(c3cc(Cl)c(F)c(Cl)c3)(C(F)(F)F)C2)c2c1CCC2 (centres unmarked) [Compound 1-2, 7-[5-(3,5-Dichloro-4-fluoro-phenyl)-5-(trifluoromethyl)-4H-isoxazol-3-yl]indane-4-carboxylic acid]
≥ 75%: mortality at 2500 ppm [2] | mortality at 300 ppm ([4]; 72 h) | mortality at 2500 ppm [5]

O=C(NCC1CC1)c1ccc(C2=NOC(c3cc(Cl)c(F)c(Cl)c3)(C(F)(F)F)C2)c2c1CCC2 (centres unmarked) [Compound 1-3, N-(Cyclopropylmethyl)-7-[5-(3,5-dichloro-4-fluoro-phenyl)-5-(trifluoromethyl)-4H-isoxazol-3-yl]indane-4-carboxamide]
≥ 75%: mortality at 2500 ppm [7] | mortality at 2500 ppm [1] | mortality at 2500 ppm [2] | mortality at 100 ppm [8] | mortality at 2500 ppm [3] | mortality at 300 ppm ([4]; 72 h) | mortality at 300 ppm [9] | mortality at 300 ppm [10] | mortality at 2500 ppm [5] | mortality at 300 ppm ([6]; Thrips, 72 h) | mortality at 300 ppm [11] | mortality at 100 ppm [12]

O=C(NCc1ccccn1)c1ccc(C2=NOC(c3cc(Cl)cc(Cl)c3)(C(F)(F)F)C2)c2c1CCC2 (centres unmarked) [Compound 1-27, 7-[5-(3,5-dichlorophenyl)-5-(trifluoromethyl)-4H-isoxazol-3-yl]-N-(2-pyridylmethyl)indane-4-carboxamide]
≥ 75%: mortality at 1 ppm [13] | mortality at 2500 ppm [7] | mortality at 2500 ppm [1] | mortality at 2500 ppm [2] | mortality at 100 ppm [8] | mortality at 2500 ppm [3] | mortality at 300 ppm ([4]; 72 h) | mortality at 300 ppm [9] | mortality at 300 ppm [10] | mortality at 2500 ppm [5] | mortality at 300 ppm ([6]; Thrips, 72 h) | mortality at 300 ppm [11] | mortality at 100 ppm [12]

O=C(O)c1ccc(C2=NCC(c3cc(Cl)c(F)c(Cl)c3)(C(F)(F)F)C2)c2c1CCC2 (centres unmarked) [Compound 2-1, 7-[3-(3,5-Dichloro-4-fluoro-phenyl)-3-(trifluoromethyl)-2,4-dihydropyrrol-5-yl]indane-4-carboxylic acid]
≥ 75%: mortality at 2500 ppm [7, 14] | mortality at 2500 ppm [2, 15] | mortality at 300 ppm ([4]; 300 ppm, 3rd instar larvae on dipped cabbage leaves, 72 hours after treatment, in comparison with untreated controls, read-out: mortality) | mortality at 2500 ppm [5, 15]

COC(=O)c1ccc(C2=NCC(c3cc(Cl)c(F)c(Cl)c3)(C(F)(F)F)C2)c2c1CCC2 (centres unmarked) [Compound 2-2, Methyl 7-[3-(3,5-dichloro-4-fluoro-phenyl)-3-(trifluoromethyl)-2,4-dihydropyrrol-5-yl]indane-4-carboxylate]
≥ 75%: mortality at 2500 ppm [7, 14] | mortality at 2500 ppm ([1]; 2500 ppm, adult aphids on sprayed broad bean leaf disks, 5 days, in comparison with untreated controls, read-out: mortality) | mortality at 2500 ppm [2, 15] | mortality at 2500 ppm [5, 15] | mortality at 300 ppm ([6]; 300 ppm, adult thrips on dipped orchid petals, 72 hours after treatment, in comparison with untreated controls, read-out: mortality)

O=C(O)c1ccc(C2=NOC(c3cc(Cl)cc(Cl)c3)(C(F)(F)F)C2)c2c1CCCC2 (centres unmarked) [Compound 3-2, 8-[5-(3,5-dichlorophenyl)-5-(trifluoromethyl)-4H-isoxazol-3-yl]tetralin-5-carboxylic acid]
≥ 75%: mortality at 2500 ppm [5]

O=C(NCC(F)(F)F)c1ccc(C2=NOC(c3cc(Cl)cc(Cl)c3)(C(F)(F)F)C2)c2c1CCCC2 (centres unmarked) [Compound 3-5, 8-[5-(3,5-dichlorophenyl)-5-(trifluoromethyl)-4H-isoxazol-3-yl]-N-(2,2,2-trifluoroethyl)tetralin-5-carboxamide]
≥ 75%: mortality at 2500 ppm [7] | mortality at 2500 ppm [1] | mortality at 2500 ppm [2] | mortality at 2500 ppm [3] | mortality at 300 ppm ([4]; 72 h) | mortality at 300 ppm [9] | mortality at 2500 ppm [5] | mortality at 300 ppm ([6]; Thrips, 72 h) | mortality at 300 ppm [11]
